The values below come from US20220081421A1, “ANTIBACTERIAL COMPOUNDS” (Forge Therapeutics, Inc., priority 2018, published 2022).

Molecules are shown by their SMILES.

In assay [1] the test system is E. coli. Briefly: MIC by broth microdilution (CLSI), E. coli. Type of assay: cell-based. To be noted: Escherichia coli, broth microdilution, cation adjusted Mueller-Hinton Broth, 35° C., 18-24 h; read-out: E. coli MIC. In short, it runs like this:
(§1)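 CLSI broth microdilution in cation-adjusted Mueller-Hinton broth with 2-fold serial drug dilutions; final inoculum 3×10^5–7×10^5 CFU/mL. Incubated 18-24 h at 35° C in ambient air; MIC is the lowest concentration preventing visible growth (OD600 nm<0.05).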

In assay [2] the test system is K. pneumoniae. Briefly: MIC by broth microdilution (CLSI), K. pneumoniae. To be noted: Klebsiella pneumoniae, broth microdilution, cation adjusted Mueller-Hinton Broth, 35° C., 18-24 h; read-out: K. pneumoniae MIC. Type of assay: cell-based. The gist of the method:
as §1
For orientation: Broth dilution looks for growth in wells or tubes with falling amounts of substance.

Regarding `CC(=O)NCC(Cc1ccc(C#Cc2ccc(CN3CCOCC3)cc2)cc1)c1c(O)cn[nH]c1=O` (stereo not drawn) [Compound 131, N-(2-(5-hydroxy-3-oxo-2,3-dihydropyridazin-4-yl)-3-(4-((4-(morpholinomethyl)phenyl)ethynyl)phenyl)propyl)acetamide], the minimum inhibitory concentration (MIC) in assay [1] and in assay [2] was > 32 µg/mL each time.

For the molecule `O=C(NCC(F)F)C(Cc1ccc(-c2ccc(-n3cccn3)cc2)cc1)c1nc[nH]c(=O)c1O` (stereo not drawn) [Compound 38, 3-(4′-(1H-pyrazol-1-yl)-[1,1-biphenyl]-4-yl)-N-(2,2-difluoroethyl)-2-(5-hydroxy-6-oxo-1,6-dihydropyrimidin-4-yl)propanamide], the MIC in assay [1] and in assay [2] was > 32 µg/mL in each case.

Regarding `O=c1[nH]cnc(C(CNCCF)Cc2ccc(C#Cc3ccc(CN4CCOCC4)nc3)cc2)c1O` (stereo not drawn) [Compound 31, 6-(1-((2-fluoroethyl)amino)-3-(4-((6-(morpholinomethyl)pyridin-3-yl)ethynyl)phenyl)propan-2-yl)-5-hydroxypyrimidin-4(3H)-one], the minimal inhibitory concentration (MIC) in assay [1] and in assay [2] was > 32 µg/mL throughout.

For orientation: MIC means the lowest concentration found to suppress growth.
